These are literature values, as cited in patent US20090163510A1 (Bristol-Myers Squibb Company, priority 2005, published 2009).

Where a name gives a salt, the structure may show the parent alone. Read-outs that look alike come from different tables or passages of the source.

This data set deals with CML. The conditions noted are these: CML patients, Kantarjian et al.

Consider `Cc1ccc(NC(=O)c2ccc(CN3CCN(C)CC3)cc2)cc1Nc1nccc(-c2cccnc2)n1` [imatinib, Imatinib mesylate], for which the “estimated 2-year incidence of resistance” value reads like this: (blastic phase) 80%; (chronic phase post-interferon failure) 10%.
